This note sets out measurements from patent publication US10174016B2 (BAYER AKTIENGESELLSCHAFT, priority 2014, dated 2019).

The target in test [1] is human P2X3 receptor (Homo sapiens (Human), UniProt P56373). Put plainly: Intracellular calcium measurement (FLIPR, Fluo-4) of antagonist activity at human P2X3 receptors. It counts as cell-based. The conditions noted are these: human P2X3, FLIPR calcium assay, agonist α,β-Me-ATP; read-out: hP2X3 IC50. A digest of the protocol:
(§1)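 Antagonism quantified from peak calcium fluorescence (Fluo-4, FLIPR, 90 sec read) evoked by EC80 α,β-Me-ATP, after a 30 min, 37° C. compound pretreatment in 1% DMSO. Human P2X3- or P2X2/3-expressing cells used; triplicate means fitted for IC50, percent maximal inhibition and Hill coefficient.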
In general terms: A change in cytosolic calcium serves as a functional read-out for many receptors and channels.

The target of test [2] is human P2X2/3 receptor (Homo sapiens (Human), UniProt P56373+Q9UBL9). Nature of the test: Intracellular calcium measurement (FLIPR, Fluo-4) of antagonist activity at human P2X2/3 receptors. To be noted: human P2X2/3, FLIPR calcium assay, agonist α,β-Me-ATP; read-out: hP2X2/3 IC50. The format is cell-based. The method, boiled down: as §1
Chain of human P2X2/3 receptor (P56373 whole entry): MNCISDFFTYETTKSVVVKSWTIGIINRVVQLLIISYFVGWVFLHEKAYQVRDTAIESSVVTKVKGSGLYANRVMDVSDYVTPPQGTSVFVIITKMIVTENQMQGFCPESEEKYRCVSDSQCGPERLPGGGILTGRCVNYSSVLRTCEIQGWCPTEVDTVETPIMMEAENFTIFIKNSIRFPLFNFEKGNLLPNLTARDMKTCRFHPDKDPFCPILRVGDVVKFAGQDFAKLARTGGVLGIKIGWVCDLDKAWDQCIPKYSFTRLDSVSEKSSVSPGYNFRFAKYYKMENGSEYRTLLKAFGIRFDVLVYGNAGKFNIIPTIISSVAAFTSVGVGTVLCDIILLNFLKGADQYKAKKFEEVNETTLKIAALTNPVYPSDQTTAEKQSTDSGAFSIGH
Chain of human P2X2/3 receptor (Q9UBL9 whole entry): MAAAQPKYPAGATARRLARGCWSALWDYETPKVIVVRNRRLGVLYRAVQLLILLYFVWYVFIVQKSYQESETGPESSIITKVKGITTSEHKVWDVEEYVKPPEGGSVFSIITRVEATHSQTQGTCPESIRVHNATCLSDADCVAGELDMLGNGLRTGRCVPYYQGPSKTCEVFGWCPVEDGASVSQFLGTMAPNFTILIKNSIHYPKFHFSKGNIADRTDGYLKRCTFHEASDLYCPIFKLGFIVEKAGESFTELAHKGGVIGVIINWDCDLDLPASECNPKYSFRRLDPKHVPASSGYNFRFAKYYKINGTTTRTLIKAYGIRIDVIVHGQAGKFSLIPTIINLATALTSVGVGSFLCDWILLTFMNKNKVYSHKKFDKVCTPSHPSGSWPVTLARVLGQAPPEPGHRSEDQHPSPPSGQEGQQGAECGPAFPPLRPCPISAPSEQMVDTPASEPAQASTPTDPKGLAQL

Molecules are shown by their SMILES.

Chain of human P2X3 receptor (P56373 whole entry): as the sequence (P56373 whole entry) above

For the compound `CCN1CCO[C@@H](COc2cc(C(=O)N[C@H](C)c3cnc(C(F)(F)F)nc3)cc(-c3ncc(C)s3)c2)C1` [Example 390, 3-{[(2R)-4-ethylmorpholin-2-yl]methoxy}-5-(5-methyl-1,3-thiazol-2-yl)-N-{(1R)-1-[2-(trifluoromethyl)pyrimidin-5-yl]ethyl}benzamide], the values for the IC50 in test [1] and in test [2] were 17 nM and 804 nM, respectively.
In the same order, the values of `Cc1ccc(CNC(=O)c2cc(OC3CCOCC3)cc(-c3ncc(C)s3)c2)nn1` [Example 82, N-[(6-Methylpyridazin-3-yl)methyl]-3-(5-methyl-1,3-thiazol-2-yl)-5-(tetrahydro-2H-pyran-4-yloxy)benzamide] are 28 nM and 380 nM.
Consider `Cc1cnc(-c2cc(OC[C@H]3CCOC3)cc(C(=O)NC(C)c3ncc(Cl)cc3F)c2)s1` (stereo partly drawn) [Example 65, N-[1-(5-Chloro-3-fluoropyridin-2-yl)ethyl]-3-(5-methyL-1,3-thiazol-2-yl)-5-[(3S)-tetrahydrofuran-3-ylmethoxy]benzamide], for which the IC50 stood at 3 nM in test [1] and 54 nM in test [2].
`Cc1cnc(-c2cc(OCC3CNCCC3(F)F)cc(C(=O)N[C@H](C)c3cnc(C(F)(F)F)nc3)c2)s1` (stereo partly drawn) [Example 359, 3-{[4,4-difluoropiperidin-3-yl]methoxy}-5-(5-methyl-1,3-thiazol-2-yl)-N-{(1R)-1-[2-(trifluoromethyl)pyrimidin-5-yl]ethyl}benzamide]: the IC50 was 6 nM in test [1] and 200 nM in test [2].
With `CCCN1CC2(COc3cc(C(=O)N[C@H](C)c4cnc(C(F)(F)F)nc4)cc(-c4ncc(C)s4)c3)CC1CO2` (stereo partly drawn) [Example 408, 3-(5-methyl-1,3-thiazol-2-yl)-5-[(5-propyl-2-oxa-5-azabicyclo[2.2.1]hept-1-yl)methoxy]-N-{(1R)-1-[2-(trifluoromethyl)pyrimidin-5-yl]ethyl}benzamide], the results for the IC50 in test [1] and in test [2] were 32 nM and 1710 nM, respectively.
For `CC[C@@H](NC(=O)c1cc(OC2COC2)cc(-c2ncc(C)s2)c1)c1cnc(C(F)(F)F)nc1` [Example 53, 3-(5-methyl-1,3-thiazol-2-yl)-5-(oxetan-3-yloxy)-N-{(1R)-1-[2-(trifluoromethyl)pyrimidin-5-yl]propyl}benzamide], the IC50 in test [1] was 318 nM; in test [2], 2740 nM.
Take `Cc1cnc(-c2cc(O[C@H]3CCNC3)cc(C(=O)N[C@H](C)c3cnc(C(F)(F)F)nc3)c2)s1` [Example 203, 3-(5-methyl-1,3-thiazol-2-yl)-5-[(3S)-pyrrolidin-3-yloxy]-N-{(1R)-1-[2-(trifluoromethyl)pyrimidin-5-yl]ethyl} benzamide]: the IC50 was 36 nM in test [1] and 1560 nM in test [2].
As for `COc1ccc([C@@H](C)NC(=O)c2cc(OC3CCOCC3)cc(-c3ncc(C)s3)c2)cn1` [Example 86, N-[(1R)-1-(6-Methoxypyridin-3-yl)ethyl]-3-(5-methyl-1,3-thiazol-2-yl)-5-(tetrahydro-2H-pyran-4-yloxy)benzamide], the IC50 in test [1] came out at 12 nM; in test [2] it was 144 nM.
Turning to `Cc1cnc(-c2cc(OC3CC4CC3CN4C)cc(C(=O)N[C@H](C)c3cnc(C(F)(F)F)nc3)c2)s1` (stereo partly drawn) [Example 209, 3-{[2-methyl-2-azabicyclo[2.2.1]hept-5-yl]oxy}-5-(5-methyl-1,3-thiazol-2-yl)-N-{(1R)-1-[2-(trifluoromethyl)pyrimidin-5-yl]ethyl}benzamide], the figures for the IC50 in test [1] and in test [2] were 30 nM and 1470 nM, respectively.
For the compound `Cc1cnc(-c2cc(O[C@@H]3CCOC3)cc(C(=O)N[C@H](C)c3nnc(C)s3)c2)s1` [Example 20, N-[(1R)-1-(5-methyl-1,3,4-thiadiazol-2-yl)ethyl]-3-(5-methyl-1,3-thiazol-2-yl)-5-[(3R)-tetrahydrofuran-3-yloxy]benzamide], the IC50 stood at 35 nM in test [1] and 486 nM in test [2].
